The results in this text go back to a melting point compilation (Tetko et al.; mined from patent text by program, amines drawn as free bases though some values may be those of a salt).

Some results are limits rather than exact numbers.

In the case of `N#CC(Sc1ccc(Cl)cc1)=C1SCCN1c1ccccc1`, the melting point (in general, the temperature of the solid-liquid transition) was in the range of 144 to 146 °C.

Turning to `NP(N)(=S)N1CCCCC1`, the melting point lay within 97 to 102 °C.

For `Cc1oc(-c2ccccc2)nc1COc1ccc2cc(CCCc3nnn[nH]3)oc2c1`, the melting point lay within 139 to 140 °C.

For `CC(SC1COC(c2ccc(C(=O)Nc3ccc(F)cc3)cc2)OC1)C(O)(Cn1cncn1)c1ccc(F)cc1F` (centres undefined), the melting point is 104 °C.

In turn, `O=C(NCc1ccccc1)Nc1nnc(-c2ccc(CN3CCCCCC3)s2)s1` displayed a melting point of 232 to 233 °C.

The compound `O=C(Cc1ccc(Cl)cc1)C1(c2ccc(Cl)c(Cl)c2)CCC1` displayed a melting point of 82 to 84 °C.

On to `COc1ccnc(-c2sccc2S(C)=O)c1` (centres undefined), for which the melting point is 103 to 105 °C.

`CCCCCCCCCCCCCCCc1c([N+](=O)[O-])cc([N+](=O)[O-])c(O)c1C(=O)O`: the melting point lay within 78 to 82 °C.

Compound `CC(C)N(CCN1C(=O)/C(=N/NC(=O)NCc2ccccc2)c2ccccc21)C(C)C` gave a melting point of 164 to 165 °C.

In the case of `COCC(=O)N[C@H]1CC[C@H](CCN2CCN(c3nccc4c3OCC4)CC2)CC1`, the melting point is 126 °C.

On to `CCNc1nc(-c2ccc(NC(=O)NCc3cccnc3)cc2)ccc1C(=O)O`, for which the melting point was 216 to 218 °C.

In turn, `CCc1c[nH]c(-c2ccc3c(c2)N(C(C)CN2CCCC2)c2ccccc2S3)n1` (racemic) returned a melting point of 197 °C.

`C#CCc1c(C)nc2c(OCc3ccccc3S(C)(=O)=O)cccn12` returned a melting point of 179 to 180 °C.

With `CCOC(=O)C1=C(C)NC(c2cscn2)=NC1c1ccccc1F` (centres undefined), the melting point fell in the range of 126 to 128 °C.

Compound `CCCc1nc(Br)c(C(=O)O)n1Cc1ccc(-c2ccccc2S(=O)(=O)NC(=O)NCc2ccccc2)cc1` came in with a melting point of 128 °C.

`O=S(=O)(c1ccc(Cl)cc1)C(CCO)c1cc(F)ccc1F` (centres undefined) had a melting point of 147 to 149 °C.

In turn, `O=C(O)c1cn(C2CC2)c2nc3cc(N4CCNC(c5cccs5)C4)c(F)cc3cc2c1=O` (racemic) yielded a melting point of 245 °C.

With `CC(C)N1C(=O)N(c2ccc(C#N)c(C(F)(F)F)c2)C(=O)C1(CO)CO`, the melting point was in the range of 172 to 173 °C.

For the compound `Fc1cccc(-c2nc(Nc3ccc(Cl)cc3)c3ccccc3n2)n1`, the melting point is 118 to 121 °C.

The compound `O=C(O)Cn1c(C(=O)O)cc(=O)c2c1C(=O)C(O)=C2` gave a melting point of more than 270 °C.

The compound `CCOc1ccc(F)c(N2Cc3cnc(NCCCCN(CC)CC)nc3N(C3CCCC3)C2=O)c1F` gave a melting point of 129 to 130 °C.

Regarding `CS(=O)(=O)NN(c1ccc([N+](=O)[O-])cc1N)S(=O)(=O)c1cccc(S(=O)(=O)F)c1`, the melting point fell in the range of 204 to 209 °C.

For the compound `O=C1COCC2=C1C(c1ccc(F)c(I)c1)C1=C(CCS1)N2` (centres undefined), the melting point was more than 260 °C.

Compound `CC(C)(C)OC(=O)N[C@@H](Cc1ccc(O)cc1)C(=O)N[C@H](Cc1ccccc1)C(=O)NCC(=O)OCc1ccccc1` yielded a melting point of 169 °C.

`CS(=O)(=O)C(=C1CN(C(c2ccccc2)c2ccccc2)C1)c1ccc(Cl)cc1` yielded a melting point of 192 °C.

In turn, `N#Cc1cnn2c3c(c(C(=O)O)nc12)CCN3C1CCCCC1` returned a melting point of 253 to 255 °C.

In turn, `COc1ccc(C(=O)c2ccc(OCc3nc(-c4ccccc4)oc3C)cc2)c(OC2(C(=O)O)CCC2)c1` gave a melting point of 199 to 201 °C.

As to `N#Cc1cc2nc(O)c(O)nc2c2[nH]nnc12`, the melting point was more than 300 °C.

Regarding `CC(=O)OC/C=C/c1ccc(-c2ccccc2C)cc1`, the melting point lay in the range of 54 to 56 °C.

For the compound `N#Cc1c(Cl)cncc1Cl`, the melting point is 117 to 118 °C.

`CC(=O)OC1OCCC[C@@H]1NC(=O)[C@H](CC(C)C)NC(=O)OCc1ccccc1` (some centres undefined) registered a melting point of 142 to 143 °C.

`CCCCCCCCCCCCCCCCCCOc1cc(O)cc(C(=O)OCc2ccccc2)c1` had a melting point of 72 to 75 °C.

`CCC12CCC3=C(CCc4cc(OC)ccc43)C1CCC21OCCO1` (centres undefined): the melting point was 135 to 137 °C.

Turning to `CC1CCC2Oc3ccc(Cl)cc3C(=O)N2O1` (centres undefined), the melting point is 210 to 213 °C.

The compound `CCCSCCCCCCCCCC(=O)O` came in with a melting point of 42 to 43.5 °C.

`CC1(C)CCSc2cc(C(=O)Nc3ccc(C(=O)O)cc3)ccc21`: the melting point fell in the range of 274 to 276 °C.

On to `CSc1cc2c(cc1C(F)(F)F)N(C(=O)Nc1ccc(-c3csc(-c4cccnc4)n3)cc1)CC2`, for which the melting point is more than 25 °C.

`O=C(CCNC(=O)c1ccccc1)NCCSC(=O)c1ccccc1` displayed a melting point of 154 to 155 °C.

`CCOC(=O)CSc1nc(Cl)cc(Nc2ccc(F)cc2)n1`: the melting point lay within 97 to 102 °C.

Consider `CCCCc1nc2ccccn2c(=O)c1-c1ccc2[nH]ccc2c1`, for which the melting point is 132 to 135 °C.

`c1ccc(C(Sc2nnn[nH]2)c2ccccc2)cc1` had a melting point of 132 to 134 °C.

In turn, `CCC1(C)Cc2cc(OC)c(Cl)c(Cl)c2C1=O` (centres undefined) registered a melting point of 121 °C.

For `CN(Cc1cccc2c1CN(C1CCC(=O)NC1=O)C2=O)C(=O)Nc1ccc(Cl)cc1` (centres undefined), the melting point is 255 to 257 °C.

On to `Cc1nc(O)cc(C(C)(C)C)n1`, for which the melting point lay in the range of 131 to 132 °C.

`CC(=O)COc1cc(-c2ncc(C(F)(F)F)cc2Cl)ccc1C#N` displayed a melting point of 146 to 147 °C.

`COc1ccc(CC(O)c2ccccn2)cc1` (centres undefined) yielded a melting point of 110 to 112 °C.

For `CC(C)NCC(O)COc1cccc2c1CC(=O)N2` (centres undefined), the melting point is 173 to 175 °C.

`CCOC(CCCN1CCC(NC(=O)c2ccccc2)CC1)OCC` yielded a melting point of 95 °C.

On to `CC(C)(N)COC(=O)CCc1cc(C(C)(C)C)c(O)c(C(C)(C)C)c1`, for which the melting point was in the range of 97 to 99 °C.

The compound `CS(=O)c1ccc(-c2coc3ccc(-c4nnc(SCc5cccc(F)c5)o4)cc23)cc1` (centres undefined) displayed a melting point of 135 to 136 °C.

For `CCCCc1cccc2c3c([nH]c12)C(CC)(CC(=O)O)CCC3` (centres undefined), the melting point lay within 131 to 134 °C.

`CCCC(CCC)C(=O)NC1CCc2ccccc21` (centres undefined) returned a melting point of 133 to 134 °C.

`COc1ccc(/C(C#N)=C/c2ccc(OC)c(OC3CCCC3)c2)cc1OC` showed a melting point of 101 to 103 °C.

With `Cn1cnc2c1c(=O)n(CCCCCCO)c(=O)n2C`, the melting point is 98 to 100 °C.

`COc1cccc(C=CC(=O)C=Cc2cccc(OC)c2)c1` had a melting point of 52 to 54 °C.

`c1ccc(N=C(NC(=Nc2ccccc2)N2CCCCO2)c2ccccc2)cc1` yielded a melting point of 187 to 190 °C.

`COc1cc2ncc(C#N)c(Nc3ccc(C)c(Br)c3)c2cc1OC` yielded a melting point of 292 to 294 °C.

`C=CCN1C(=O)CCc2cc(Sc3cccc([C@@]4(O)CCO[C@@H](C)C4)c3)ccc21`: the melting point was in the range of 107 to 109 °C.

For `COc1ccc(-c2cn(C)cc(-c3ccccc3)c2=O)cc1`, the melting point worked out at 165 °C.

With `OCC1Cc2ccccc2OC1CO` (centres undefined), the melting point lay within 82 to 85 °C.

In turn, `O=C(CCl)Nc1ccc(Cl)cc1C(=O)c1ccccc1` displayed a melting point of 119 to 120 °C.

`OCc1cccc2nc(-c3ccccc3)sc12` had a melting point of 101 to 102 °C.

Consider `Cc1nc(N2CCN(Cc3ccc(F)cc3)C2=O)sc1C(=O)NCc1cocn1`, for which the melting point was 188 to 191 °C.

In turn, `COc1cccc(/C=C(/C(=O)O)c2cc(OC)c(OC)c(OC)c2)c1` returned a melting point of 68 to 70 °C.

Turning to `O=c1[nH]ccc2c1C(c1cccc([N+](=O)[O-])c1)N=C(c1ccccc1)N2` (centres undefined), the melting point is 206 to 207 °C.

In turn, `Cn1c(=O)[nH]c(=O)c2c1ncn2CC1OCCO1` displayed a melting point of 276 to 278 °C.

`OC(Cn1cncn1)(CC(Cl)(Cl)Cl)c1ccc(F)cc1` (centres undefined) showed a melting point of 127 °C.

As for `Cc1ccc(N2C(=O)C(O)=C(C(=O)c3ccc(C(C)C)cc3)C2c2ccc(OCCN3CCOCC3)cc2)nn1` (centres undefined), the melting point amounted to 256 °C.

As for `Cc1cccc(-c2[nH]nc(C(F)(F)F)c2-c2ccncc2)c1`, the melting point lay in the range of 237 to 239 °C.

`ClC(Cl)=CCOc1cc(Cl)c(OCCCOc2ccc(-c3nn[nH]n3)cc2)c(Cl)c1` returned a melting point of 159 to 161 °C.

As to `CCN(CC)Cc1ccc2c(c1)-c1[nH]nc(-c3ccsc3)c1C2`, the melting point fell in the range of 157 to 158 °C.

Compound `COc1ccc(-c2[nH]nc3c2C(=O)c2c(NC(=O)Cc4ccc5c(c4)OCO5)cccc2-3)cc1` showed a melting point of 297 °C.

Take `COC(=O)C1CCCCc2c(-c3ccc(Cl)cc3)noc2C1` (centres undefined): the melting point was in the range of 65 to 69 °C.

Compound `ClCc1cnc2cc(Cl)ccc2c1Cl` displayed a melting point of 106 to 107 °C.

With `Nc1ccc(C(c2ccc(N)cc2)(c2ccc(I)cc2)C(F)(F)F)cc1`, the melting point was 171 to 172 °C.

Consider `CCN(CC)c1c([N+](=O)[O-])cc(C(F)(F)F)c(Cl)c1[N+](=O)[O-]`, for which the melting point lay in the range of 35 to 36 °C.

Consider `CCCCSc1cc(C(=O)O)cc(N)c1-c1ccccc1`, for which the melting point lay in the range of 143 to 144 °C.

Turning to `OC(c1ccccc1)C1CCN(CCCN(c2ccccc2)c2ccccc2)CC1` (centres undefined), the melting point fell in the range of 129 to 130 °C.

The compound `COc1ccc(C2=CCCCc3cc(OCc4ccccc4)ccc32)cc1` registered a melting point of 76 to 78 °C.

`O=C1SC(=Cc2cccs2)C(=O)N1CCCCSc1cccc2nccn12` yielded a melting point of 116 to 117 °C.

The compound `NC(=O)CN1C[C@@H]2CCC[C@@H]2C1=O` (relative stereo) yielded a melting point of 138 to 141 °C.

`O=C(O)c1cc(Br)cnc1O` came in with a melting point of 245 °C.

In turn, `O=C(c1nc(-c2ccccc2)nc2ccccc12)N1CCCCC1` gave a melting point of 160 °C.

`CCOC(=O)c1c(Cn2cncn2)nc2cc(OC)c(O)cc2c1-c1ccc(O)c(O)c1`: the melting point was 264 to 266 °C.

On to `COc1ccccc1CNc1cccnc1-c1ccccc1`, for which the melting point fell in the range of 122 to 125 °C.

Compound `O=C(NC[C@H]1CN(c2ccc(N3CCN(C(=O)OCc4ccccc4)CC3)c(F)c2)C(=O)O1)C(F)F` displayed a melting point of 147 °C.

Compound `c1ccc(C2=N[C@@H](CCP(c3ccccc3)c3ccccc3)CO2)cc1` yielded a melting point of 52.5 to 54 °C.

With `CC1N=C(c2ccccc2Cl)c2c(ccc(NC(=O)NC3CCC(O)CC3)c2Br)N(C)C1=O` (centres undefined), the melting point lay in the range of 226 to 227 °C.

`O=C(Nc1cccc2ccccc12)OCCCC(O)c1ccccc1` (centres undefined) registered a melting point of 92 °C.
